According to article PMC2063203, “The renal effects of the water-soluble, non-folylpolyglutamate synthetase-dependent thymidylate synthase inhibitor ZD9331 in mice” (British Journal of Cancer, 1998):
Several values for one entry are separate records, joined by “and”; a condition that tells them apart may be missing. Equal entries are not always repeated.

Test system: DBA-2 mice
Assay: Glomerular filtration rate (GFR) by [14C]inulin clearance after bolus drug
Assay type: in vivo
Protocol: British Journal of Cancer (1998) 78(11), 1457-1463 ? […] In contrast to Tomudex (ZD1694), ZD9331 may therefore be active against tumours with low FPGS activity. […] In view of the history of renal toxicity with some earlier TS inhibitors and the possible therapeutic use of bolus ZD9331, we have examined the effects of bolus ZD9331 dose and route of administration on plasma and kidney pharmacokinetics and renal function in mice. Renal function was assessed by measuring [14C]inulin clearance, and drug concentrations were assayed by reverse-phase high-performance liquid chromatography (HPLC). […] Kidney drug concentrations were slightly elevated in iv.- versus i.p.-treated animals at the low dose (50 mg kg-'), with a correspondingly larger area under the curve. However, at the highest dose (200 mg kg-'), peak kidney drug concentrations were 20-fold higher following i.v. administration than after i.p., with marked kidney retention, resulting in a 50-fold greater kidney drug exposure for the i.v. versus the i.p. route. […] These adverse effects can be readily overcome by i.p. administration, indicating the likely need for short infusions in clinical settings. […] Early studies established that nephrotoxicity may be a result of poor aqueous solubility of 2-amino compounds such as CB3717, and it was shown that 2-desamino CB3717 was more water soluble and less nephrotoxic (Jones et al, 1989; 1996). […] These polyglutamate forms also exibit intra- cellular retention, which may contribute to toxicity as well as anti- tumour activity. […] Such compounds might be expected to show activity in a different spectrum of tumours from ZD1694 and to have a more manageable toxicity profile because of the lack of retained cyto- toxic metabolites. […] MATERIALS AND METHODS Drug administration and animals The compound ZD933 1 (Figure 1) was provided as a white crystalline salt. ['4C]inulin was provided as a carboxylic acid (Amersham, UK, 250 µCi in 5 ml, specific activity 6.6 mCi mmol-') and diluted to an activity of 5 µCi ml-' in phosphate-buffered saline (PBS). ZD9331 was dissolved in 0.05 M sodium bicarbonate, 1457 1458 Ml Walton et al ~~ N Ny~~~14COOHH 0 H IN H N CH ~~~~H , 4 H3C N3 H Figure 1 The chemical structure of ZD9331 adjusted to pH 9.0 and administered either i.v. via the tail vein or i.p. at 0.01 ml g-' mouse body weight. [14C]inulin was administered at 0.05 gCi g-' (i.e. 0.01 ml g-') i.v. via the tail vein. Adult female DBA-2 mice were obtained from OLAC (Bicester, UK) and used at 8-12 weeks of age at a body weight of 15-25 g. Mice were housed in cages containing untreated sawdust and allowed access to food and water ad libitum. Sample preparation Plasma and tissue samples were prepared using standard tech- niques (Walton et al, 1996). Briefly, whole blood was obtained by cardiac puncture into heparinized syringes from halothane- anaesthetized mice. Plasma was prepared by centrifugation at 12 000 r.p.m. x 2 min in a bench-top microcentrifuge. Kidney and liver tissues were rapidly removed, washed and snap frozen on dry ice. Frozen plasma and tissues were stored at -20?C for up to 4 weeks prior to analysis. Individual samples were thawed on ice and handled rapidly. ZD9331 was extracted from whole plasma or tissue homogenates (33% w/v in 0.1 M Tris, pH 10.0) by the addition of an equal volume of acetonitrile, mixing and centrifugation and the super- natant removed for injection into the HPLC system. Samples were diluted with Tris buffer (0.1 M, pH 10.0) on to the linear part of the calibration curve prior to HPLC analysis. Extraction efficiencies were >95%. HPLC analysis Concentrations of ZD9331 were measured in biological samples using reversed phase HPLC on equipment supplied by Kontron (Watford, UK). Separations were carried out using stainless-steel columns heated at 45?C and packed with C18 Supelcosil ODS (10 cm x 4.6 mm, 5 µm bead size, Sigma, Dorset) and protected with NewGuard C18 columns (Anachem, Luton, UK). […]

Compound	effect on GFR (150 mg kg-1 i.p., 24 h after administration)	effect on GFR (150 mg kg-1 i.v., 4 h after administration)	effect on GFR (150 mg kg-1 i.v., 24 h after administration)	plasma clearance of [14C]inulin (normal DBA-2 mice, i.v., two independent experiments)
C#CCN(Cc1ccc2nc(N)[nH]c(=O)c2c1)c1ccc(C(=O)N[C@@H](CCC(=O)O)C(=O)O)cc1 [CB3717, N10-propargyl-5,8-dideazafolic acid, reference compound]	significant renal toxicity	significant renal toxicity	significant renal toxicity	
[14C]inulin [reference compound]				19.5 mL/min/kg and 21.3 mL/min/kg
